Experimental data taken from PMC12700220, “Synthesis, photochemical and biological evaluation of novel photoswitchable glycomimetic ligands of Pseudomonas aeruginosa LecB” (RSC Advances, 2025).

Assays:
[1] = target: T1, LecB (Pseudomonas aeruginosa, UniProt Q9HYN5); assay: ITC after […] nm illumination; type: binding; design: N-terminal 6xHis-tagged LecB
[2] = target: T1, LecB; assay: (soak, […] Å) and ITC; type: binding; design: N-terminal 6xHis-tagged LecB (homotetramer)

T1 sequence (Q9HYN5 entry or part of it): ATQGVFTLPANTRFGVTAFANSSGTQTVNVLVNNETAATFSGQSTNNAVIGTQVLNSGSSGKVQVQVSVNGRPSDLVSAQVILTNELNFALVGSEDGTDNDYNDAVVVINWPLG

## C[C@@H]1O[C@H](CNS(=O)(=O)c2ccc(/N=N\c3ccccc3)cc2)[C@@H](O)[C@H](O)[C@@H]1O (mixture of isomers) [photofucose-2, cis-photofucose-2]
[1]
  Kd: 4.71 ± 2.61 µM

## C[C@@H]1O[C@H](CNS(=O)(=O)c2ccc(/N=N/c3ccccc3)cc2)[C@@H](O)[C@H](O)[C@@H]1O [photofucose-2, 4-((E)-phenyldiazenyl)-N-(((2R,3S,4R,5S,6S)-3,4,5-trihydroxy-6-methyltetrahydro-2H-pyran-2-yl)methyl)benzenesulfonamide]
[2]
  Kd: 1.82 ± 0.408 µM
